Counter-ions that a name gives are not always drawn. Like-named read-outs stand apart in the source and are kept apart here.
Assays:
[1] = biological target: T1, human recombinant dopamine D4.2 receptor (Homo sapiens, UniProt P21917, DEL265-296); test: [3H]spiperone receptor binding assay, D4.2 (CHO K1 membranes); conditions: [3H]spiperone 0.2 nM, human D4.2, CHO K1 membranes, 60 minutes at 25° C.
T1 construct: expressed in transfected cells
T1 sequence (P21917 with tags, fused parts or gaps DEL265-296): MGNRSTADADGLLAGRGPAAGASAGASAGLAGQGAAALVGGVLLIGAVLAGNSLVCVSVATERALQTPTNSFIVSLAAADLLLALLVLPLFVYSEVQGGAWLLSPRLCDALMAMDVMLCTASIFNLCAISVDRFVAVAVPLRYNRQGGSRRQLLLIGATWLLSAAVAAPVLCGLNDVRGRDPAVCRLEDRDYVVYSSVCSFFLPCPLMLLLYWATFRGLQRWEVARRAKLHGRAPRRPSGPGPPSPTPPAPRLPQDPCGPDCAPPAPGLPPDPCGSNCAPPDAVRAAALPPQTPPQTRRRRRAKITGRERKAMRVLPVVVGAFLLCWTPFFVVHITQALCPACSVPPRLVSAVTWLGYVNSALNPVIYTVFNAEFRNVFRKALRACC
Text: (§1) A cell line expressing human dopamine D2 (Long form) receptors was purchased from Oregon Health Sciences University, Portland, Ore. The D2 receptor cDNA was subcloned into an expression vector, pRc/CMV. The plasmids were transfected by electroporation into CHO K1 cells. A single stable transfectant, resistant to the antibiotic G418, was isolated and selected for use in the binding studies. For D4 binding, CHO K1 cells stably transfected to express the human recombinant dopamine D4.2 receptor subtype, as described by Shih, et al., "The expression and functional characterization of human dopamine D4.2 receptor in CHO K1 cells," Soc.
(§2) Cells were grown until confluent, after which growth medium was removed and replaced with 0.02% ethylene diamine tetracetate (EDTA) in a phosphate-buffered saline solution (Sigma Chemical Co; St. Louis, Mo.) and scraped from the flasks. The cells were centrifuged at about 1000×g for 10 minutes at 40° C. and then resuspended in TEM buffer (25 mM Tris-HCL, pH 7.4, 5 mM EDTA, and 6 mM MgCl2) for D2 or the D4.2 buffer (50 mM Tris-HCl, pH 7.4, 5 mM EDTA, 1.5 mM CaCl2, 5 mM KCl, and 120 mM NaCl) and homogenized. The membranes were pelleted by centrifugation at 20,000×g at 40° C. for 20 minutes. Then the pellets were resuspended in an appropriate buffer at 1 mL/flask and stored at -70° C. until used in the receptor binding assay.
After 60 minutes incubation at 25° C., the incubations were terminated by rapid filtration through Whatmann GF/B glass fibre filters (soaked for 1 hour in 0.5% polyethylenimine) on a -cell harvester, with three washes of 1 mL ice-cold buffer. […] Nonspecific binding was defined in presence of 1 mM of haloperidol.
(§3) Saturation and competition binding data were analyzed using an iterative nonlinear least-square curve-fitting Ligand program. […] Experimental compounds were made up as stock solutions in dimethyl sulfoxide (DMSO). […] Each observation was carried out in triplicate. To allow these calculations, Kd values were measured for the interaction of various ligands with the receptor. […]

[2] = biological target: human dopamine D2 (Long form) receptor (Homo sapiens, UniProt P14416); test: [3H]spiperone receptor binding assay, D2 (Long form) (CHO K1 membranes)
human dopamine D2 (Long form) receptor, sequence (P14416 whole entry): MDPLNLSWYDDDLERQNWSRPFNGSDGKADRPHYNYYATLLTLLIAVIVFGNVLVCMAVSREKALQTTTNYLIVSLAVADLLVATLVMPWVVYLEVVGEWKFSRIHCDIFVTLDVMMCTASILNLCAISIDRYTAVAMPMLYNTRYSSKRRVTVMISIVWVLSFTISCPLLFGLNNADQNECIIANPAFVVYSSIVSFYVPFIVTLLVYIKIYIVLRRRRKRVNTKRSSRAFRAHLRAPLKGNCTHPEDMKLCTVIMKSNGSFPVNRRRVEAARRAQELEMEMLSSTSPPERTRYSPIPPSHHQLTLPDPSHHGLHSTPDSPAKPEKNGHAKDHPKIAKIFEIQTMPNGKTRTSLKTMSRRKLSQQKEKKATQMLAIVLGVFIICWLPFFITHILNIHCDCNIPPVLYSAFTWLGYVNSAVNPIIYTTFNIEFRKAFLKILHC
Text: as §1, with “Soc. Neurosci., 1995;21(Part 1):621.” for “Soc.”
as §2, with “CHO K1 cells expressing either human D2 and D4.2 receptors were grown in 162 cm^2 culture flasks in F12 medium (Gibco Laboratories, Grand Island, N.Y.) supplemented with 10% fetal bovine serum (FBS, Hyclone, Logan, UT) in an atmosphere of 5% Co2 /95% air at 37° C. Cells” for “Cells”
After 60 minutes incubation at 25° C., the incubations were terminated by rapid filtration through Whatmann GF/B glass fibre filters (soaked for 1 hour in 0.5% polyethylenimine) on a -cell harvester, with three washes of 1 mL ice-cold buffer. Individual filter disks containing the bound ligand were placed in counting vials with 4 mL of scintillation fluid (Ready Gel, Beckman Instrument Inc, Fullerton, Calif.) and then counted in a Beckman LS-6800 liquid scintillation counter at an efficiency of 45%. Nonspecific binding was defined in presence of 1 mM of haloperidol.
as §3

[3] = [3H]spiperone 0.2 nM, human D2 (Long form), CHO K1 membranes, 60 minutes at 25° C., read-out: D2 Ki

Structure (SMILES)	Ki ([1]; D4 Ki)	Ki [2]	Ki ([1]; read-out: D4 Ki)	Ki [2, 3]
Cc1ccc(N2CCN(Cc3ccc4ccc(=O)oc4c3)CC2)cc1Cl [Example 1, 7-[4-(3-Chloro-4-methyl-phenyl)-piperazin-1-ylmethyl]-chromen-2-one]	0.0069 µM	> 5.88 µM		
O=c1ccc2ccc(CN3CCN(c4ccc(CO)c(Cl)c4)CC3)cc2o1 [Example 2, 7-[4-(3-Chloro-4-hydroxymethyl-phenyl)-piperazin-1-ylmethyl]-chromen-2-one]			0.011 µM	10.6 µM
Cc1ccc(N2CCN(Cc3ccc4ccc(=O)oc4c3)CC2)cc1C [Example 3, 7-[4-(3,4-Dimethyl-phenyl)-piperazin-1-ylmethyl]-chromen-2-one]	0.0139 µM			0.433 µM
Cc1ccccc1N1CCN(Cc2ccc3ccc(=O)oc3c2)CC1 [Example 4, 7-(4-o-Tolyl-piperazin-1-ylmethyl)-chromen-2-one]	0.0163 µM			1.94 µM
O=c1ccc2ccc(CN3CCN(c4ccccc4Cl)CC3)cc2o1 [Example 5, 7-[4-(2-Chloro-phenyl)-piperazin-1-ylmethyl]-chromen-2-one]			0.0168 µM	0.635 µM
O=c1ccc2ccc(CN3CCC(c4ccccc4)CC3)cc2o1 [Example 7, 7-(4-Phenyl-piperidin-1-ylmethyl)-chromen-2-one]	0.018 µM			
Cc1cccc(N2CCN(Cc3ccc4ccc(=O)oc4c3)CC2)c1C [Example 8, 7-[4-(2,3-Dimethyl-phenyl)-piperazin-1-ylmethyl]-chromen-2-one]			0.019 µM	0.688 µM
O=c1ccc2ccc(CN3CCN(c4cccc(Cl)c4)CC3)cc2o1 [Example 9, 7-[4-(3-Chloro-phenyl)-piperazin-1-ylmethyl]-chromen-2-one]			0.023 µM	> 10 µM
O=c1ccc2ccc(CN3CCN(c4cccc(C(F)(F)F)c4)CC3)cc2o1 [Example 10, 7-[4-(3-Trifluoromethyl-phenyl)-piperazin-1-ylmethyl]-chromen-2-one]			0.024 µM	5.88 µM
O=Cc1ccc(N2CCN(Cc3ccc4ccc(=O)oc4c3)CC2)cc1Cl [Example 11, 2-Chloro-4-[4-(2-oxo-2H-chromen-7-ylmethyl)-piperazin-1-yl]-benzaldehyde]			0.0246 µM	> 5.88 µM
Cc1ccc(C2CCN(Cc3ccc4ccc(=O)oc4c3)CC2)cc1 [Example 12, 7-(4-p-Tolyl-piperidin-1-ylmethyl)-chromen-2-one]			0.0257 µM	
O=c1ccc2ccc(CN3CCN(c4ccccc4)CC3)cc2o1 [Example 13, 7-(4-Phenyl-piperazin-1-ylmethyl)-chromen-2-one]	0.026 µM			5.34 µM
O=c1ccc2ccc(CN3CCN(c4cccc([N+](=O)[O-])c4)CC3)cc2o1 [Example 14, 7-[4-(3-Nitro-phenyl)-piperazin-1-ylmethyl]-chromen-2-one]			0.026 µM	5.88 µM
O=c1ccc2ccc(CN3CCN(c4ccc(F)c(C(F)(F)F)c4)CC3)cc2o1 [Example 15, 7-[4-(4-Fluoro-3-trifluoromethyl-phenyl)-piperazin-1-ylmethyl]-chromen-2-one]			0.0273 µM	7.12 µM
O=c1ccc2ccc(CN3CCN(c4ccc(CO)c(F)c4)CC3)cc2o1 [Example 16, 7-[4-(3-Fluoro-4-hydroxymethyl-phenyl)-piperazin-1-ylmethyl]-chromen-2-one]			0.0299 µM	
O=c1ccc2ccc(CN3CCN(c4ccc(CO)c(Br)c4)CC3)cc2o1 [Example 19, 7-[4-(3-Bromo-4-hydroxymethyl-phenyl)-piperazin-1-ylmethyl]-chromen-2-one]			0.0395 µM	
O=c1ccc2ccc(CN3CCN(c4ccc5ccccc5c4)CC3)cc2o1 [Example 23, 7-(4-Naphthalen-2-yl-piperazin-1-ylmethyl)-chromen-2-one]			0.0497 µM	
O=c1ccc2ccc(CN3CCN(c4ccc(F)cc4)CC3)cc2o1 [Example 24, 7-[4-(4-Fluoro-phenyl)-piperazin-1-ylmethyl]-chromen-2-one]	0.059 µM			
COc1ccc(N2CCN(Cc3ccc4ccc(=O)oc4c3)CC2)cc1 [Example 26, 7-[4-(4-Methoxy-phenyl)-piperazin-1-ylmethyl]-chromen-2-one]	0.075 µM			
CCCSc1cccc(N2CCN(Cc3ccc4ccc(=O)oc4c3)CC2)c1 [Example 27, 7-[4-(3-Propylsulfanyl-phenyl)-piperazin-1-ylmethyl]-chromen-2-one]			0.091 µM	
O=c1ccc2ccc(CN3CCN(c4ccc(Cl)cc4)CC3)cc2o1 [Example 28, 7-[4-(4-Chloro-phenyl)-piperazin-1-ylmethyl]-chromen-2-one]			0.093 µM	
Cc1c(Cl)cccc1N1CCN(Cc2ccc3ccc(=O)oc3c2)CC1 [Example 29, 7-[4-(3-Chloro-2-methyl-phenyl)-piperazin-1-ylmethyl]-chromen-2-one]			0.128 µM	
O=c1ccc2ccc(CN3CCN(Cc4ccccc4)CC3)cc2o1 [Example 30, 7-(4-Benzyl-piperazin-1-ylmethyl)-chromen-2-one]	2.66 µM			
COc1cc(N2CCN(Cc3ccc4ccc(=O)oc4c3)CC2)cc(OC)c1OC [Example 31, 7-[4-(3,4,5-Trimethoxy-phenyl)-piperazin-1-ylmethyl]-chromen-2-one]			> 2 µM	
O=c1ccc2ccc(CN3CCN(c4ncccn4)CC3)cc2o1 [Example 32, 2H-1-Benzopyran-2-one, 7-[[4-(2-pyrimidinyl)-1-piperazinyl]methyl]-, dihydrochloride]			5 µM	
O=c1ccc2cc(CN3CCN(c4cccc(Cl)c4Cl)CC3)ccc2o1 [Example 45]			0.041 µM	
O=c1ccc2cc(CN3CCN(c4ccc(F)cc4)CC3)ccc2o1 [Example 46, 6-[4-(4-Fluoro-phenyl)-piperazin-1-ylmethyl]-chromen-2-one]			0.041 µM	
Cc1cccc(N2CCN(Cc3ccc4oc(=O)ccc4c3)CC2)c1 [Example 49, 6-(4-m-Tolyl-piperazin-1-ylmethyl)-chromen-2-one]	0.074 µM			
O=c1ccc2cc(CN3CCN(c4ncccn4)CC3)ccc2o1 [Example 50, 2H-1-Benzopyran-2-one, 6-[[4-(2-pyrimidinyl)-1-piperazinyl]methyl]-]			0.163 µM	
COc1cc(N2CCN(Cc3ccc4oc(=O)ccc4c3)CC2)cc(OC)c1OC [Example 51, 6-[4-(3,4,5-Trimethoxy-phenyl)-piperazin-1-ylmethyl]-chromen-2-one]			0.316 µM	
